Experimental data: publication doi:10.1101/2023.10.01.560353v1 (bioRxiv, 2023)
In brackets after ≈: the same amount, converted by molar mass. Peptide text beside a SMILES is read from it.

How the values were obtained:
[1] = test system: 11 clinically relevant bacterial pathogens; experiment: MIC over the panel of pathogens; format: cell-based; conditions: Table S17; lowest MIC over the strains tested
A. baumannii ATCC19606 = experiment: Outer membrane permeabilization, NPN uptake; format: cell-based, Acinetobacter baumannii; conditions: peptide at its MIC; polymyxin B as positive control; three replicates

Compound | MIC (lowest MIC value obtained in the antimicrobial activity assays) [1] | outer membrane permeabilization (NPN uptake) (A. baumannii ATCC19606)
CC[C@H](C)[C@H](N)C(=O)N[C@@H](CO)C(=O)N[C@@H](CC(C)C)C(=O)N[C@@H](Cc1ccccc1)C(=O)N[C@H](C(=O)N[C@@H](CCCNC(=N)N)C(=O)N1CCC[C@H]1C(=O)N[C@@H](CC(C)C)C(=O)N[C@@H](C)C(=O)N[C@@H](CC(C)C)C(=O)NCC(=O)N[C@H](C(=O)N[C@@H](CCCNC(=N)N)C(=O)N[C@@H](CC(C)C)C(=O)O)C(C)C)[C@@H](C)CC [Psephotellin-1] (H-ISLFIRPLALGVRL-OH) | 16000 mM (≈ 25100 mg/mL) | permeabilized the outer membrane
CC[C@H](C)[C@H](NC(=O)[C@H](CO)NC(=O)CNC(=O)[C@H](CC(C)C)NC(=O)[C@H](CC(C)C)NC(=O)[C@H](CC(C)C)NC(=O)[C@H](CCCNC(=N)N)NC(=O)[C@H](CCCCN)NC(=O)[C@@H](NC(=O)[C@H](CO)NC(=O)[C@H](CC(N)=O)NC(=O)[C@@H](NC(=O)[C@H](CC(C)C)NC(=O)[C@@H](N)CC(C)C)[C@@H](C)CC)[C@@H](C)CC)C(=O)N[C@@H](CC(C)C)C(=O)O [Arctodutin-1] (H-LLINSIKRLLLGSIL-OH) | 2000 mM (≈ 3330 mg/mL) | permeabilized the outer membrane
